This note sets out measurements from ChEMBL document CHEMBL1134226, “The amide hydrogen of (-)-indolactam-V and benzolactam-V8's plays a critical role in protein kinase C binding and tumor-promoting activities” (Bioorg Med Chem Lett, 2001).

pKi: −log10 of the molar value.

Test [1] concerns HL-60. Kind of test: Tested for superoxide (O2-) generation inducing activity in differentiated HL-60 cells at 10e-7 M. It counts as functional, Homo sapiens.
The subject of test [2] is HL-60. Kind of test: Tested for superoxide (O2-) generation inducing activity in differentiated HL-60 cells at 10e-5 M. It counts as functional, Homo sapiens.
Test [3] concerns Raji (Homo sapiens). Kind of test: Tested for epstein barr virus early antigen (EBV-EA) inducing activity in Raji cells at 10e-6 M.
For test [4], the target named is T1, Protein kinase C epsilon type (Homo sapiens, UniProt Q02156).
T1 sequence (Q02156 whole entry): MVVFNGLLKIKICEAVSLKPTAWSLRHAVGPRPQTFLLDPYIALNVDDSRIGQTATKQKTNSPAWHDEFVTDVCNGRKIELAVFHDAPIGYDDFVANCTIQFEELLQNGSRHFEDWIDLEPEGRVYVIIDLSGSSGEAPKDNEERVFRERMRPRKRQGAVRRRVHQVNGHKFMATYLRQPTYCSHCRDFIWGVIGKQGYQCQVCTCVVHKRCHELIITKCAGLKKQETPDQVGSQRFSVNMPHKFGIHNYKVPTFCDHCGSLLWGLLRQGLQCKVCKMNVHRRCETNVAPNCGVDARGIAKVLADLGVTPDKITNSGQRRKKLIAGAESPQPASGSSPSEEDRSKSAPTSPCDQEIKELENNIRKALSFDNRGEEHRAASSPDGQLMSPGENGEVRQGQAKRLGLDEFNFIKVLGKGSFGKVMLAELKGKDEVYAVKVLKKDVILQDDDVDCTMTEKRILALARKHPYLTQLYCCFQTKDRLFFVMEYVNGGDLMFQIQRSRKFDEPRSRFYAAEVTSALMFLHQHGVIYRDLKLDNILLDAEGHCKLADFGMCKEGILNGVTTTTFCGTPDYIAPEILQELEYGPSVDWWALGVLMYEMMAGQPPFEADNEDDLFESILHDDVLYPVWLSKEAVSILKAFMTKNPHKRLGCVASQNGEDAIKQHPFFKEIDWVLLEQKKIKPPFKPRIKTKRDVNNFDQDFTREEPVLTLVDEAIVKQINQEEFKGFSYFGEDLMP
Briefly: Inhibition of [3H]phorbol-12,13-dibutyrate (PDBu) binding to Protein kinase C epsilon C1b domain.

Test [5] deals with Protein kinase C theta type (Homo sapiens, UniProt Q04759). Briefly: Inhibition of [3H]phorbol-12,13-dibutyrate (PDBu) binding to Protein kinase C theta C1b domain.
Test [6] concerns the target T2, Protein kinase C beta type (Homo sapiens, UniProt P05771). Kind of test: Inhibition of [3H]phorbol-12,13-dibutyrate (PDBu) binding to Protein kinase C beta C1a.
Target sequence in this assay (P05771 whole entry, the tested form may be a part): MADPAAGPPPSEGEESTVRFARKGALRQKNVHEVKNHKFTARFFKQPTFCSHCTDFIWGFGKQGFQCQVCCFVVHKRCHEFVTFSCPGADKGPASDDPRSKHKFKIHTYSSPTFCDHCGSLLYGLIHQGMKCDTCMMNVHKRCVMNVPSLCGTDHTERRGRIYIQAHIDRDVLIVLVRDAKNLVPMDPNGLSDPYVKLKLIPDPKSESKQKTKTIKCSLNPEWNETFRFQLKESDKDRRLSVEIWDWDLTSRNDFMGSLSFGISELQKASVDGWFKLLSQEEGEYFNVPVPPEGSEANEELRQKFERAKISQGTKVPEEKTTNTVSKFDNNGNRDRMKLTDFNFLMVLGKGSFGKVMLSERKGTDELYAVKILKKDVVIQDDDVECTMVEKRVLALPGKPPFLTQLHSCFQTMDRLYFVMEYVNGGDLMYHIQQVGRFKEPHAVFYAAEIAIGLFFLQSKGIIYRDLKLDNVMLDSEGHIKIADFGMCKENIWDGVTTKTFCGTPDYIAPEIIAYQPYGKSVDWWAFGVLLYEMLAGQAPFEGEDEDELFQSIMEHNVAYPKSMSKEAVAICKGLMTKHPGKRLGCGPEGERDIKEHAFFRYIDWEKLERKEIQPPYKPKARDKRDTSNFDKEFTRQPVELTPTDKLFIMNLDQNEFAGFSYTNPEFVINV
Test [7] addresses T2, Protein kinase C beta type. Briefly: Inhibition of [3H]phorbol-12,13-dibutyrate (PDBu) binding to Protein kinase C beta C1b domain.
Target sequence in this assay (P05771 whole entry, looked up, the tested form may be a part): as the sequence (P05771 whole entry, the tested form may be a part) above
Test [8] has as its system HL-60. Kind of test: Tested for superoxide (O2-) generation inducing activity in differentiated HL-60 cells at 10e-6 M. It counts as functional, Homo sapiens.
The target of test [9] is T3, Protein kinase C delta type (Homo sapiens, UniProt Q05655). Briefly: Inhibition of [3H]phorbol-12,13-dibutyrate (PDBu) binding to Protein kinase C delta C1a domain.
Test [10] deals with Raji (Homo sapiens). Briefly: Tested for epstein barr virus early antigen (EBV-EA) inducing activity in Raji cells at 10e-5 M.
Test [11] concerns the target T4, Protein kinase C eta type (Homo sapiens, UniProt P24723). Briefly: Inhibition of [3H]phorbol-12,13-dibutyrate (PDBu) binding to Protein kinase C eta C1b domain.
In test [12] the target is T5, Protein kinase C gamma type (Homo sapiens, UniProt P05129). Kind of test: Inhibition of [3H]phorbol-12,13-dibutyrate (PDBu) binding to Protein kinase C gamma C1b domain.
Test [13] concerns the target T4, Protein kinase C eta type. Kind of test: Inhibition of [3H]phorbol-12,13-dibutyrate (PDBu) binding to Protein kinase C eta C1a domain.
For test [14], the target named is T1, Protein kinase C epsilon type. Kind of test: Inhibition of [3H]phorbol-12,13-dibutyrate (PDBu) binding to Protein kinase C epsilon C1a domain.
Test [15] concerns the target T6, Protein kinase C alpha type (Homo sapiens, UniProt P17252). Kind of test: Inhibition of [3H]phorbol-12,13-dibutyrate (PDBu) binding to Protein kinase C alpha C1a domain.
Test [16] has as its target T5, Protein kinase C gamma type. Kind of test: Inhibition of [3H]phorbol-12,13-dibutyrate (PDBu) binding to Protein kinase C gamma C1a domain.
Test [17] has as its target T6, Protein kinase C alpha type. Kind of test: Inhibition of [3H]phorbol-12,13-dibutyrate (PDBu) binding to Protein kinase C alpha C1b domain.
For test [18], the target named is T3, Protein kinase C delta type. Kind of test: Inhibition of [3H]phorbol-12,13-dibutyrate (PDBu) binding to Protein kinase C delta C1b domain.
Test [19] relates to Raji (Homo sapiens). Briefly: Tested for epstein barr virus early antigen (EBV-EA) inducing activity in Raji cells at 10e-4.5 M.
For test [20], the system named is HL-60. Kind of test: Tested for superoxide (O2-) generation inducing activity in differentiated HL-60 cells at 10e-4 M. It counts as functional, Homo sapiens.
The subject of test [21] is HL-60. Briefly: Tested for epstein barr virus early antigen (EBV-EA) inducing activity in […] at 10e-7 M. It counts as functional, Homo sapiens.

T3 sequence (Q05655 whole entry, the tested form may be a part): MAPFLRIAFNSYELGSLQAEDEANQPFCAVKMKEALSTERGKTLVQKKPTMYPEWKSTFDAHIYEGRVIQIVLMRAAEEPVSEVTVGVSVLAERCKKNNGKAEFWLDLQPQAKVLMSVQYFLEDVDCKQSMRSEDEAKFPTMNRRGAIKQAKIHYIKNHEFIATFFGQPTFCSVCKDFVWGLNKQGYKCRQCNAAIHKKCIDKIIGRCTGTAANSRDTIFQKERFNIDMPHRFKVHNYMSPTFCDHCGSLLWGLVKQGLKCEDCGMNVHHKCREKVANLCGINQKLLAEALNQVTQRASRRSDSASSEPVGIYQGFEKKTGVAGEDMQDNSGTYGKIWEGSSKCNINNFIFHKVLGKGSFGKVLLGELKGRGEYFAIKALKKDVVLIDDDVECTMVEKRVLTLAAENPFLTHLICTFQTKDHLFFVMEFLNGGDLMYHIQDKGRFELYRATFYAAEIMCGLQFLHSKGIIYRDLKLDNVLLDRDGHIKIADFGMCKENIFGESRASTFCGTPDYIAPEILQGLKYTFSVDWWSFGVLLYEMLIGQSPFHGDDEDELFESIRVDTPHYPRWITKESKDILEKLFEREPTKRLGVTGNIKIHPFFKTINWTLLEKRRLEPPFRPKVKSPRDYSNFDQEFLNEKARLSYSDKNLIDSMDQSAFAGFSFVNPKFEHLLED
T4 sequence (P24723 whole entry, the tested form may be a part): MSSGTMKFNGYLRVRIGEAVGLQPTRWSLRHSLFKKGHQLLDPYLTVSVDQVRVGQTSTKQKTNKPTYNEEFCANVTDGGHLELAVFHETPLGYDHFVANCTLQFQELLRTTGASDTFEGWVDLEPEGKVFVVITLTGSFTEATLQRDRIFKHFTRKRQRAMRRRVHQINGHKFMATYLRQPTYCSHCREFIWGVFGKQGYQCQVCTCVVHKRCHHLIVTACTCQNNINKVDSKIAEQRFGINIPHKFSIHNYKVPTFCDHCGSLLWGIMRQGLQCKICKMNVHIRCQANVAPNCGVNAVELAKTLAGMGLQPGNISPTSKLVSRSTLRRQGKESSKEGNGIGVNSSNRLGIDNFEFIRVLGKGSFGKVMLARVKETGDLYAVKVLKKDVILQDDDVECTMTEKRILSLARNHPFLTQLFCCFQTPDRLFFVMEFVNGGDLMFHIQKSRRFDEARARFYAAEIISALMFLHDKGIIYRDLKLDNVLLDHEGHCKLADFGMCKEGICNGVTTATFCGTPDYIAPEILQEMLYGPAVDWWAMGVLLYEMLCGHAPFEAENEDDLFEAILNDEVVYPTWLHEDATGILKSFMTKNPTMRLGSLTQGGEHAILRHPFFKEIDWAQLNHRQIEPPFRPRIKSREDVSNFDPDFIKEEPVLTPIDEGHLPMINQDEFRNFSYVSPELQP
Sequence of Protein kinase C theta type (Q04759 whole entry, the tested form may be a part): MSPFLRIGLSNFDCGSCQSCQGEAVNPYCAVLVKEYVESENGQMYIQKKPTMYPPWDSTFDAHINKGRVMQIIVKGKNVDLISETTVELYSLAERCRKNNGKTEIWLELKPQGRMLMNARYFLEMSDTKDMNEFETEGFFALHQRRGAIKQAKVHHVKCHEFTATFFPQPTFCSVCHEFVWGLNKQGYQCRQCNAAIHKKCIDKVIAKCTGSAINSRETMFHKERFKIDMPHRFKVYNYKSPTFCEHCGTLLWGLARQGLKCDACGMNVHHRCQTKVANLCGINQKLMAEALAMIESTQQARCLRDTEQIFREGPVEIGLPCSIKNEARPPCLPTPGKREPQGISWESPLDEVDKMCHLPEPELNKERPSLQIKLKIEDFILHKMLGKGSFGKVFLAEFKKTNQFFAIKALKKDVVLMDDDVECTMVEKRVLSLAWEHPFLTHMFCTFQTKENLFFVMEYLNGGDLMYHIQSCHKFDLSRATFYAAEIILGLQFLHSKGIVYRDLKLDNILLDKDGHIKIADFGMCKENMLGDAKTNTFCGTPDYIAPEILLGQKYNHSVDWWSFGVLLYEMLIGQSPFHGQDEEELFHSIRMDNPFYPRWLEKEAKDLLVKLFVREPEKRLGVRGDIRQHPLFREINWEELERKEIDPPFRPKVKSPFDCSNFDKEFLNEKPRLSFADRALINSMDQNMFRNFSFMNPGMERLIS

In the test on HL-60 [1], `CCCCCCCCCCCCCC(=O)O[C@@H]1[C@@H](C)[C@@]2(O)[C@@H](C=C(CO)C[C@]3(O)C(=O)C(C)=C[C@@H]23)[C@@H]2C(C)(C)[C@]12OC(C)=O` [PHORBOL MYRISTATE ACETATE] came in with an Activity of 1.32 nM min-1 ml-1.

As for `CCCCCCCCCCc1ccc2c(c1)C[C@@H](CO)OC(=O)[C@H](C(C)C)N2C`, the Activity is 0.2 nM min-1 ml-1 with HL-60 [2]; 0.8% in the test on Raji (Homo sapiens) [3]; 0.11 nM min-1 ml-1 in the test on HL-60 [8]; 1.9% in the test on Raji (Homo sapiens) [10]; 5% in the test with Raji (Homo sapiens) [19]; 0.19 nM min-1 ml-1 in the test on HL-60 [20]. Moreover, the pKi (commonly the Ki on a negative log10 scale, so that one unit is a factor of ten) in test [4] is 6.58; in test [5], 5.96; in test [6] it was under 5.00; in test [7], 4.66; in test [9], 4.15; in test [11], 6.92. Besides, the pKi in test [12] was 4.76; in test [13] it was under 5.00; in [14] it was under 5.00; in [15], under 5.00; in test [16] it was 5.20; in [17] it was under 5.00. Also, in [18], the pKi is 5.94.

As to `CC(C)[C@H]1C(=O)N[C@H](CO)Cc2c[nH]c3cccc(c23)N1C` [INDOLACTUM], the Activity is reported as 3.18 nM min-1 ml-1 in the test with HL-60 [2]; 33.5% in the test on Raji (Homo sapiens) [3]; 0.05 nM min-1 ml-1 in the test with HL-60 [1]; 16.8% in the test on HL-60 [21]; 3.19 nM min-1 ml-1 with HL-60 [8]; 28.9% in the test on Raji (Homo sapiens) [10].

Turning to `CCCCCCCCCCc1ccc2c(c1)C[C@@H](CO)NC(=O)[C@H](C(C)C)N2C`, the Activity was 3.04 nM min-1 ml-1 in the test with HL-60 [2]; 6.7% in the test on Raji (Homo sapiens) [3]; 0.33 nM min-1 ml-1 in the test with HL-60 [1]; 0.31 nM min-1 ml-1 with HL-60 [8]; 11.3% in the test with Raji (Homo sapiens) [10]; 17.6% in the test on Raji (Homo sapiens) [19]. For the same compound, the negative-log Ki (pKi) in test [4] was 7.88; in test [5], 7.88; in test [6], 6.35; in test [7], 6.58; in test [9] it was 5.56; in test [11], 8.19. The pKi was 6.82 in test [12]; 5.60 in test [13]; 5.08 in [14]; 6.49 in test [15]; 5.78 in test [16]; 5.33 in [17]. The same compound gave a pKi in test [18] of 7.84.
